The values that follow come from patent publication US20200237852A1, “Small Molecule Enhancers of Paneth Cell Function and Differentiation” (Massachusetts Institute of Technology, priority 2019, published 2020).

Each structure is given as a SMILES string.

Common to all, as to type: cell-based, C57BL/6 mice
For test [1], the system named is ISC-enriched organoids in ENR+CD. The test is described as follows: 384-well secondary screen in ENR+CD incl. early vs. full treatment, secreted LYZ (LYZ.NS, LYZ.S). As to conditions: 6-day ENR+CD+treatment vs ENR+CD+DMSO; cutoff 0.89, 8 replicates.
Test [2] deals with conventional organoid (ENR). The test is described as follows: 384-well screen in conventional organoid (ENR), secreted LYZ (LYZ.NS, LYZ.S). The note with it: 6-day ENR differentiation compared with ENR+CD.
Test [3] relates to ENR+CD and ENR organoid populations. The test is described as follows: Population RNA-seq of organoids. The note with it: 3 days of treatment, all media conditions controlled, FDR<0.01. The text has this:
To further assess the potential interaction of Wnt agonist CHIR99021 (C) and Notch inhibitor DAPT (D) with XPO1 inhibitors, we carried out an experiment where we assessed bulk organoid population transcriptomes (with RNA-seq) from multiple variations on growth media, XPO1 inhibitor, and duration of treatment (FIG. 12A). To characterize the resulting cell phenotypes, we used aggregate scores of geneset enrichment (based on module scoring as implemented in^7) from the in vivo Paneth and related enteroendocrine cell populations (genesets taken from^6). We see that again for both ENR+CD treated (FIG. 12B) and ENR treated (FIG. 12C) organoid populations, XPO1 inhibition drives enrichment in Paneth cell defining genes, principally at 3 days of treatment. […]
Population RNA-seq was performed using a derivative of the Smart-Seq2 protocol for single cells^1,2. […] Libraries were pooled post-Nextera and cleaned using Agencourt AMPure SPRI beads with successive 0.7× and 0.8× ratio SPRIs and sequenced with an Illumina 75 Cycle NextSeq500/550v2 kit (Illumina FC-404-2005) with loading density at 2.2 pM, with paired end 35 cycle read structure. Samples were sequenced at an average read depth of 8.44 million reads per sample and a total of 96 samples. […]

As for `O=C(/C=C\n1cnc(-c2cc(C(F)(F)F)cc(C(F)(F)F)c2)n1)NNc1cnccn1` [KPT-330], the “validation in secondary screen (SSMD above cutoff for both LYZ.NS and LYZ.S)” value in test [1] was “multiple validated doses”. Further, the “mean fold change in LYZ.NS/ATP and LYZ.S/ATP (LYZ secretion per cell) in ENR” value in test [2] is “reasonable increases in LYZ secretion per cell in ENR”. Further, the “identity of the majority of significantly up-regulated genes relative to no treatment (DESeq2)” value in test [3] is reported as “known Paneth cell lineage-defining genes”.
